Assays:
Notum [1] = biological target: T1, Notum (Homo sapiens, UniProt Q6P988, C330S); experiment: Notum activity assay with OPTS as substrate; type: biochemical; design: The human Notum enzyme core comprising amino acids S81–T451 with a C330S mutation; made in house; dialyzed conditioned medium used without purification; conditions: result in words
T1 sequence (Q6P988 81-451 C330S): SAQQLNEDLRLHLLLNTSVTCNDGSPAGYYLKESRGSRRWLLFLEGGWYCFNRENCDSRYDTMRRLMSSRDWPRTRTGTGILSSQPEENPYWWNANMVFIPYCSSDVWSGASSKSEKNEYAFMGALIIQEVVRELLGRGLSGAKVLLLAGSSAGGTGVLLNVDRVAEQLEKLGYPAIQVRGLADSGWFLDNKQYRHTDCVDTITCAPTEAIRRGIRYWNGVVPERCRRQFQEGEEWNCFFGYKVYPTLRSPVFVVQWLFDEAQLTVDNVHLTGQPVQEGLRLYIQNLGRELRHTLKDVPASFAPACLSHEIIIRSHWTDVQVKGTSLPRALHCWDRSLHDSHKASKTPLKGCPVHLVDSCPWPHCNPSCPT
Method: OPTS is a common lipase substrate with an octanoyl lipid linked to a fluorescent moiety. It is not a natural Notum substrate; however, it can be used to quantify the enzymatic activity of purified Notum protein[23],[25],[28]. […] The fluorescent lipase substrate OPTS was dissolved in water at a concentration of 20 µM. […] The inhibition curves were fitted with a one-site model with GraphPad Prism 8 software.

Notum [2] = biological target: T1, Notum; experiment: SPR equilibrium binding to biotinylated Notum on streptavidin chip; design: The human Notum enzyme core comprising amino acids S81–T451 with a C330S mutation; made in house; dialyzed conditioned medium used without purification; conditions: result in words
Method: The human Notum core sequence was cloned in a pHL-Avi3 vector[49] and co-transfected with the pDisplay_BirA-ER plasmid[50] into HEK293T cells with the media supplemented with 20 µM biotin. This procedure allows in vivo biotinylation to occur, and the dialyzed conditioned medium was directly used for SA sensor chip immobilization without protein purification. […] Approximately 2500 resonance units (RU) of the biotinylated Notum was coupled onto the chip. […] The response was plotted versus the concentration of the analytes and fitted by nonlinear regression to a one-site saturation binding model (GraphPad Prism 8).

Notum [3] = biological target: T1, Notum; experiment: Thermal shift assay (SYPRO Orange) of Notum; conditions: compound 500 µM; for Thermoflour melting curve fluorescence of Notum: Fig 2c
Method: Reference wells, i.e. solutions without compounds were used to compare the melting temperature (Tm). The experiments were performed in triplicate.

Cn1c(=O)[nH]c2ncn(C)c2c1=O [paraxanthine, 1,7-dimethylxanthine]
Notum inhibitory effect in OPTS enzyme assay (Notum [1]): could not detect obvious Notum inhibitory effects
Binding to Notum (SPR response) (Notum [2]): did not observe significant responses
Binding to Notum (SPR response) (Notum [2]; listed as Paraxanthine): do not bind Notum
Thermoflour melting curve fluorescence of Notum (Notum [3]; Temperature 24.5): 1987.07
Thermoflour melting curve fluorescence of Notum (Notum [3]; Temperature 25.5): 1782.57
Thermoflour melting curve fluorescence of Notum (Notum [3]; Temperature 26.5): 1579.35
Thermoflour melting curve fluorescence of Notum (Notum [3]; Temperature 27.5): 1384.26
Thermoflour melting curve fluorescence of Notum (Notum [3]; Temperature 28.5): 1239.77
Thermoflour melting curve fluorescence of Notum (Notum [3]; Temperature 29.5): 1129.04
Thermoflour melting curve fluorescence of Notum (Notum [3]; Temperature 30.5): 1031.12
Thermoflour melting curve fluorescence of Notum (Notum [3]; Temperature 31.5): 918.053
Thermoflour melting curve fluorescence of Notum (Notum [3]; Temperature 32.5): 770.537
Thermoflour melting curve fluorescence of Notum (Notum [3]; Temperature 33.5): 609.721
Thermoflour melting curve fluorescence of Notum (Notum [3]; Temperature 34.5): 426.953
Thermoflour melting curve fluorescence of Notum (Notum [3]; Temperature 35.5): 213.386
Thermoflour melting curve fluorescence of Notum (Notum [3]; Temperature 36.5): -34.2239
Thermoflour melting curve fluorescence of Notum (Notum [3]; Temperature 37.5): -296.182
Thermoflour melting curve fluorescence of Notum (Notum [3]; Temperature 38.5): -499.812
Thermoflour melting curve fluorescence of Notum (Notum [3]; Temperature 39.5): -637.629
Thermoflour melting curve fluorescence of Notum (Notum [3]; Temperature 40.5): -751.582
Thermoflour melting curve fluorescence of Notum (Notum [3]; Temperature 41.5): -837.247
Thermoflour melting curve fluorescence of Notum (Notum [3]; Temperature 42.5): -891.039
Thermoflour melting curve fluorescence of Notum (Notum [3]; Temperature 43.5): -901.613
Thermoflour melting curve fluorescence of Notum (Notum [3]; Temperature 44.5): -863.856
Thermoflour melting curve fluorescence of Notum (Notum [3]; Temperature 45.5): -795.543
Thermoflour melting curve fluorescence of Notum (Notum [3]; Temperature 46.5): -693.454
Thermoflour melting curve fluorescence of Notum (Notum [3]; Temperature 47.5): -545.549
Thermoflour melting curve fluorescence of Notum (Notum [3]; Temperature 48.5): -352.113
Thermoflour melting curve fluorescence of Notum (Notum [3]; Temperature 49.5): -114.575
Thermoflour melting curve fluorescence of Notum (Notum [3]; Temperature 50.5): 165.368
Thermoflour melting curve fluorescence of Notum (Notum [3]; Temperature 51.5): 475.15
Thermoflour melting curve fluorescence of Notum (Notum [3]; Temperature 52.5): 801.618
Thermoflour melting curve fluorescence of Notum (Notum [3]; Temperature 53.5): 1178.09
Thermoflour melting curve fluorescence of Notum (Notum [3]; Temperature 54.5): 1624.42
Thermoflour melting curve fluorescence of Notum (Notum [3]; Temperature 55.5): 2146.78
Thermoflour melting curve fluorescence of Notum (Notum [3]; Temperature 56.5): 2764.33
Thermoflour melting curve fluorescence of Notum (Notum [3]; Temperature 57.5): 3495.42
Thermoflour melting curve fluorescence of Notum (Notum [3]; Temperature 58.5): 4462.48
Thermoflour melting curve fluorescence of Notum (Notum [3]; Temperature 59.5): 5756.59
Thermoflour melting curve fluorescence of Notum (Notum [3]; Temperature 60.5): 7495.13
Thermoflour melting curve fluorescence of Notum (Notum [3]; Temperature 61.5): 9729.04
Thermoflour melting curve fluorescence of Notum (Notum [3]; Temperature 62.5): 12262.8
Thermoflour melting curve fluorescence of Notum (Notum [3]; Temperature 63.5): 14775.9
Thermoflour melting curve fluorescence of Notum (Notum [3]; Temperature 64.5): 17022.5
Thermoflour melting curve fluorescence of Notum (Notum [3]; Temperature 65.5): 18955.6
Thermoflour melting curve fluorescence of Notum (Notum [3]; Temperature 66.5): 20556.8
Thermoflour melting curve fluorescence of Notum (Notum [3]; Temperature 67.5): 21849.9
Thermoflour melting curve fluorescence of Notum (Notum [3]; Temperature 68.5): 22932.3
Thermoflour melting curve fluorescence of Notum (Notum [3]; Temperature 69.5): 23847.9
Thermoflour melting curve fluorescence of Notum (Notum [3]; Temperature 70.5): 24631
Thermoflour melting curve fluorescence of Notum (Notum [3]; Temperature 71.5): 25359.6
Thermoflour melting curve fluorescence of Notum (Notum [3]; Temperature 72.5): 25975.5
Thermoflour melting curve fluorescence of Notum (Notum [3]; Temperature 73.5): 26515.7
Thermoflour melting curve fluorescence of Notum (Notum [3]; Temperature 74.5): 27075.8
Thermoflour melting curve fluorescence of Notum (Notum [3]; Temperature 75.5): 27622.8
Thermoflour melting curve fluorescence of Notum (Notum [3]; Temperature 76.5): 28157.3
Thermoflour melting curve fluorescence of Notum (Notum [3]; Temperature 77.5): 28616.3
Thermoflour melting curve fluorescence of Notum (Notum [3]; Temperature 78.5): 29028.5
Thermoflour melting curve fluorescence of Notum (Notum [3]; Temperature 79.5): 29470.8
Thermoflour melting curve fluorescence of Notum (Notum [3]; Temperature 80.5): 29930.8
Thermoflour melting curve fluorescence of Notum (Notum [3]; Temperature 81.5): 30385.9
Thermoflour melting curve fluorescence of Notum (Notum [3]; Temperature 82.5): 30819.6
Thermoflour melting curve fluorescence of Notum (Notum [3]; Temperature 83.5): 31270.2
Thermoflour melting curve fluorescence of Notum (Notum [3]; Temperature 84.5): 31691.8
Thermoflour melting curve fluorescence of Notum (Notum [3]; Temperature 85.5): 32102.2
Thermoflour melting curve fluorescence of Notum (Notum [3]; Temperature 86.5): 32523.2
Thermoflour melting curve fluorescence of Notum (Notum [3]; Temperature 87.5): 32949.1
Thermoflour melting curve fluorescence of Notum (Notum [3]; Temperature 88.5): 33332.7
Thermoflour melting curve fluorescence of Notum (Notum [3]; Temperature 89.5): 33682.6
Thermoflour melting curve fluorescence of Notum (Notum [3]; Temperature 90.5): 34084.7
Thermoflour melting curve fluorescence of Notum (Notum [3]; Temperature 91.5): 34496.3
Thermoflour melting curve fluorescence of Notum (Notum [3]; Temperature 92.5): 34921.9
Thermoflour melting curve fluorescence of Notum (Notum [3]; Temperature 93.5): 35339.5
Thermoflour melting curve fluorescence of Notum (Notum [3]; Temperature 94.5): 35764.6
Thermoflour melting curve fluorescence of Notum (Notum [3]; Temperature 95.5): 36159.7
Thermoflour melting curve fluorescence of Notum (Notum [3]; Temperature 96.5): 36500.9
Thermoflour melting curve fluorescence of Notum (Notum [3]; Temperature 97.5): 36857
Effect on Tm of Notum (Notum [3]): little effect on the Tm
Melting temperature (Tm) of Notum (Notum [3]; Notum without compounds Tm 63.6 °C): 63.5 °C
